Data on nine compounds can be found in patent US8299077B2 (Roche Palo Alto LLC, priority 2009, dated 2012).

The assay deals with B cell receptor-mediated activation of B cells in human blood (CD69 expression). In words: Inhibition of B cell activation in whole blood measured by CD69 expression. It counts as cell-based. Particulars: anti-IgM stimulation, 20 h, 50% decrease of CD69-positive cells that are also CD20-positive. The protocol:
Inhibition of B Cell Activation in Whole Blood Measured by CD69 Expression
A procedure to test the ability of Btk inhibitors to suppress B cell receptor-mediated activation of B cells in human blood is as follows:
Human whole blood (HWB) is obtained from healthy volunteers, with the following restrictions: 24 hr drug-free, non-smokers. Blood is collected by venipuncture into Vacutainer tubes anticoagulated with sodium heparin. Test compounds are diluted to ten times the desired starting drug concentration in PBS (20×), followed by three-fold serial dilutions in 10% DMSO in PBS to produce a nine point dose-response curve. 5.5 μl of each compound dilution is added in duplicate to a 2 ml 96-well V bottom plate (Analytical Sales and Services, #59623-23); 5.5 μl of 10% DMSO in PBS is added to control and no-stimulus wells. HWB (100 μl) is added to each well, and after mixing the plates are incubated at 37 C, 5% CO2, 100% humidity for 30 minutes. Goat F(ab′)2 anti-human IgM (Southern Biotech, #2022-14) (10 μl of a 500 μg/ml solution, 50 μg/ml final concentration) is added to each well (except the no-stimulus wells) with mixing and the plates are incubated for an additional 20 hours.
At the end of the 20 hour incubation, samples are incubated with florescent-probe-labeled anti-bodies (15 μl PE Mouse anti-Human CD20, BD Pharmingen, #555623, and/or 20 ul APC Mouse anti-Human CD69, BD Pharmingen #555533) for 30 minutes, at 37 C, 5% CO2, 100% humidity. Included are induced control, unstained and single stains for compensation adjustments and initial voltage settings. Samples are then lysed with 1 ml of 1× Pharmingen Lyse Buffer (BD Pharmingen #555899), and plates are centrifuged at 1800 rpm for 5 minutes. Supernatants are removed via suction and the remaining pellets are lysed again with another 1 ml of 1× Pharmingen Lyse Buffer, and plates are spun down as before. Supernatants are aspirated and remaining pellets are washed in FACs buffer (PBS+1% FBS). After a final spin, the supernantants are removed and pellets are resuspended in 180 μl of FACs buffer. Samples are transferred to a 96 well plate suitable to be run on the HTS 96 well system on the BD LSR II flow cytometer.
Using appropriate excitation and emission wavelengths for the fluorophores used, data are acquired and percent positive cell values are obtained using Cell Quest Software. Results are initially analyzed by FACS analysis software (Flow Jo). […] The IC50 values are calculated using XLfit software version 3, equation 201.

The term IC50 denotes the concentration needed to halve the response being measured. Lower therefore signals inhibition by little substance.

`CN1CCN(c2ccc(Nc3cc(-c4cccc(-n5ccc6cc(N(C)C)cc(F)c6c5=O)c4CO)cn(C)c3=O)nc2)CC1` [Example I-4, 6-Dimethylamino-8-fluoro-2-(2-hydroxymethyl-3-{1-methyl-5-[5-(4-methyl-piperazin-1-yl)-pyridin-2-ylamino]-6-oxo-1,6-dihydro-pyridin-3-yl}-phenyl)-2H-isoquinolin-1-one] gave an IC50 of 11 nM. In the case of `CCNC(=O)Nc1cc(-c2cccc(N3CCc4cc(C(C)(C)C#N)cc(F)c4C3=O)c2CO)cn(C)c1=O` [Example I-5, 1-(5-{3-[6-(Cyano-dimethyl-methyl)-8-fluoro-1-oxo-3,4-dihydro-1H-isoquinolin-2-yl]-2-hydroxymethyl-phenyl}-1-methyl-2-oxo-1,2-dihydro-pyridin-3-yl)-3-ethyl-urea], 1080 nM corresponded to half-maximal inhibition (IC50). `Cn1cc(-c2cccc(-n3ncc4cc(C(C)(C)C)cc(F)c4c3=O)c2CO)cc(Nc2ccc(C(=O)N3CCOCC3)cn2)c1=O` [Example I-9, 6-tert-Butyl-8-fluoro-2-(2-hydroxymethyl-3-{1-methyl-5-[5-(morpholine-4-carbonyl)-pyridin-2-ylamino]-6-oxo-1,6-dihydro-pyridin-3-yl}-phenyl)-2H-phthalazin-1-one] had an IC50 of 1 nM. For the compound `CN1CCN(Cc2ccc(Nc3cc(-c4cccc(N5CCc6cc(C7CC7)cc(F)c6C5=O)c4CO)cn(C)c3=O)nc2)CC1` [Example I-11, 6-Cyclopropyl-8-fluoro-2-(2-hydroxymethyl-3-{1-methyl-5-[5-(4-methyl-piperazin-1-ylmethyl)-pyridin-2-ylamino]-6-oxo-1,6-dihydro-pyridin-3-yl}-phenyl)-3,4-dihydro-2H-isoquinolin-1-one], the concentration for half-maximal inhibition (IC50) worked out at 58 nM. Against the preceding compound, the IC50 is about 58-fold higher. For `CCN1CCN(c2ccc(Nc3cc(-c4cccc(N5CCc6cc(C7CC7)cc(F)c6C5=O)c4CO)cn(C)c3=O)nc2)CC1` [Example I-12, 6-Cyclopropyl-2-(3-{5-[5-(4-ethyl-piperazin-1-yl)-pyridin-2-ylamino]-1-methyl-6-oxo-1,6-dihydro-pyridin-3-yl}-2-hydroxymethyl-phenyl)-8-fluoro-3,4-dihydro-2H-isoquinolin-1-one], inhibition was half-maximal at 43 nM (IC50). To `Cn1cc(-c2cccc(N3CCc4cc(C5CC5)cc(C#N)c4C3=O)c2CO)cc(Nc2ccc(S(C)(=O)=O)cn2)c1=O` [Example I-13, 6-Cyclopropyl-2-{2-hydroxymethyl-3-[5-(5-methanesulfonyl-pyridin-2-ylamino)-1-methyl-6-oxo-1,6-dihydro-pyridin-3-yl]-phenyl}-1-oxo-1,2,3,4-tetrahydro-isoquinoline-8-carbonitrile] belongs 4040 nM; to `Cn1cc(-c2cccc(-n3ncc4cc(C(C)(C)C)cc(F)c4c3=O)c2CO)cc(Nc2ccc(N3CCNCC3)cn2)c1=O` [Example I-14, 6-tert-Butyl-8-fluoro-2-{2-hydroxymethyl-3-[1-methyl-6-oxo-5-(5-piperazin-1-yl-pyridin-2-ylamino)-1,6-dihydro-pyridin-3-yl]-phenyl}-2H-phthalazin-1-one], 30 nM. The same measure for `Cn1cc(-c2cccc(-n3ncc4cc(C(C)(C)C)cc(F)c4c3=O)c2CO)cc(Nc2ccc(C3CCNCC3)cn2)c1=O` [Example I-16, 6-tert-Butyl-8-fluoro-2-{3-[5-(1′,2′,3′,4′,5′,6′-hexahydro-[3,4′]bipyridinyl-6-ylamino)-1-methyl-6-oxo-1,6-dihydro-pyridin-3-yl]-2-hydroxymethyl-phenyl}-2H-phthalazin-1-one]: 48 nM; for `Cn1cc(-c2cccc(-n3ncc4cc(C(C)(C)C)cc(F)c4c3=O)c2CO)cc(Nc2ccc(N3CCC(C)(O)CC3)cn2)c1=O` [Example I-17, 6-tert-Butyl-8-fluoro-2-{2-hydroxymethyl-3-[5-(4-hydroxy-4-methyl-3,4,5,6-tetrahydro-2H-[1,3′]bipyridinyl-6′-ylamino)-1-methyl-6-oxo-1,6-dihydro-pyridin-3-yl]-phenyl}-2H-phthalazin-1-one]: 10 nM.
